# Values quoted from earlier work in patent publication US20070173447A1, “METHOD FOR TREATING OSTEOPOROSIS BY INTRANASAL DELIVERY OF TERIPARATIDE WITH AN ANTI-RESORPTIVE AGENT” (Nastech Pharmaceutical Company Inc., priority 2005, published 2007).
# Read-outs that look alike come from different tables or passages of the source. Ends that are not written are not given here.
# Legend:
# [1] = anesthetized rats
# [2] = rats, intraduodenal, with 1% (w/v) saline dispersion of polycarbophil
# [3] = intranasal, up to 500 μg per day for 7 days and up to 1,000 μg per day for 3 months
# [4] = after feeding to rats
molecule,measurement,setting,value
hPTH1-31NH2 (SVSEIQLMHNLGKHLNSMERVEWLRKKLQDV-NH2; listed as Homo sapiens),restoration of bone loss,ovariectomized rat model,fully active
human growth hormone,nasal bioavailability,[1]; with N-acetyl-L-cysteine,12.2%
same,nasal bioavailability,[1]; without N-acetyl-L-cysteine,7.5%
"9-desglycinamide, 8-arginine vasopressin [DGAVP]",bioavailability increase compared to aqueous solution without polymer,[2],3-5 fold
2-alkyl-4-hydroxyquinolines [pyo compound],concentration producing ciliostasis / inhibiting ciliary motility,ciliary motility,50 µg/mL
"CC[C@H](C)[C@H](NC(=O)[C@H](CCC(=O)O)NC(=O)[C@H](CO)NC(=O)[C@@H](NC(=O)[C@@H](N)CO)C(C)C)C(=O)N[C@@H](CCC(N)=O)C(=O)N[C@@H](CC(C)C)C(=O)N[C@@H](CCSC)C(=O)N[C@@H](Cc1cnc[nH]1)C(=O)N[C@@H](CC(N)=O)C(=O)N[C@@H](CC(C)C)C(=O)NCC(=O)N[C@@H](CCCCN)C(=O)N[C@@H](Cc1cnc[nH]1)C(=O)N[C@@H](CC(C)C)C(=O)N[C@@H](CC(N)=O)C(=O)N[C@@H](CO)C(=O)N[C@@H](CCSC)C(=O)N[C@@H](CCC(=O)O)C(=O)N[C@@H](CCCN=C(N)N)C(=O)N[C@H](C(=O)N[C@@H](CCC(=O)O)C(=O)N[C@@H](Cc1c[nH]c2ccccc12)C(=O)N[C@@H](CC(C)C)C(=O)N[C@@H](CCCN=C(N)N)C(=O)N[C@@H](CCCCN)C(=O)N[C@@H](CCCCN)C(=O)N[C@@H](CC(C)C)C(=O)N[C@@H](CCC(N)=O)C(=O)N[C@@H](CC(=O)O)C(=O)N[C@H](C(=O)N[C@@H](Cc1cnc[nH]1)C(=O)N[C@@H](CC(N)=O)C(=O)N[C@@H](Cc1ccccc1)C(=O)O)C(C)C)C(C)C [Teriparatide, teriparatide]",safety concerns,[3],No safety concerns were noted
Phaseolus vulgaris hemagglutinin,oral bioavailability,[4],more than 10%
